Entries after “also recorded” stand apart in the source; their conditions may differ.
Tests used:
human adult PBMCs = test: Cytokine production by stimulated human adult PBMCs (ELISA / multiplex); type: cell-based; conditions: for Adult PBMCs (median ng/ml) IL-6 (N = 7) / Adult PBMCs (median ng/ml) TNFa (N = 13): human adult PBMCs, compounds at 100 µM (FIG. 7), ELISA
Method: ELISAs and Multiplex-Analyte Assays. Supernatants derived from human PBMCs stimulations were assayed by ELISA for TNF and IL-6 (ThermoFisher Scientific; Waltham, MA, USA). Cytokine and chemokine expression profiles (e.g., IFNγ, IL-9, IL-10, IL-12 (p70), IL-13, IL-1β, IL-23, IL-27, IL-28A, IL-33, IL-6, MIP-3α/CCL20, and TNF) in cell culture supernatants were measured using a customized Milliplex® Human Th17 Magnetic Bead Panel according to the manufacturer's instructions (Millipore, Chicago, IL, USA). Assays were read and analyzed on the Luminex® 100/200TM System and xPOTENT® software (Luminex, Austin, TX). A minimum threshold was set at the minimum detectable concentration for each individual assay, defined as three standard deviations above the mean background.
PBMCs were isolated from blood using a Ficoll density gradient. PBMCs either used fresh or were stored at 5×10^7 cells per vial in 1 mL RPMI containing 20% autologous plasma and 10% DMSO at −80° C. until use. […] PBMCs isolated from human adult donors or THP1-NF-κB cells were resuspended at a concentration of 10^5 cells/200 μl of RPMI supplemented with 10% of platelet-poor plasma or THP1 culture medium, respectively. […] After 24 hours of incubation (37° C., 5% CO2), plates were spun down (500×g, room temperature, 5 minutes) and supernatants were harvested for further analysis.

human TLR8 = biological target: T1, human TLR8 (Homo sapiens, UniProt Q9NR97); test: HEK293 assay for human TLR8 selectivity (NF-κB/SEAP); type: cell-based; conditions: selectivity counter-assay
T1 construct: host or cells: HEK293 cells with an NF-kB-responsive SEAP reporter gene
T1 sequence (Q9NR97 27-1041): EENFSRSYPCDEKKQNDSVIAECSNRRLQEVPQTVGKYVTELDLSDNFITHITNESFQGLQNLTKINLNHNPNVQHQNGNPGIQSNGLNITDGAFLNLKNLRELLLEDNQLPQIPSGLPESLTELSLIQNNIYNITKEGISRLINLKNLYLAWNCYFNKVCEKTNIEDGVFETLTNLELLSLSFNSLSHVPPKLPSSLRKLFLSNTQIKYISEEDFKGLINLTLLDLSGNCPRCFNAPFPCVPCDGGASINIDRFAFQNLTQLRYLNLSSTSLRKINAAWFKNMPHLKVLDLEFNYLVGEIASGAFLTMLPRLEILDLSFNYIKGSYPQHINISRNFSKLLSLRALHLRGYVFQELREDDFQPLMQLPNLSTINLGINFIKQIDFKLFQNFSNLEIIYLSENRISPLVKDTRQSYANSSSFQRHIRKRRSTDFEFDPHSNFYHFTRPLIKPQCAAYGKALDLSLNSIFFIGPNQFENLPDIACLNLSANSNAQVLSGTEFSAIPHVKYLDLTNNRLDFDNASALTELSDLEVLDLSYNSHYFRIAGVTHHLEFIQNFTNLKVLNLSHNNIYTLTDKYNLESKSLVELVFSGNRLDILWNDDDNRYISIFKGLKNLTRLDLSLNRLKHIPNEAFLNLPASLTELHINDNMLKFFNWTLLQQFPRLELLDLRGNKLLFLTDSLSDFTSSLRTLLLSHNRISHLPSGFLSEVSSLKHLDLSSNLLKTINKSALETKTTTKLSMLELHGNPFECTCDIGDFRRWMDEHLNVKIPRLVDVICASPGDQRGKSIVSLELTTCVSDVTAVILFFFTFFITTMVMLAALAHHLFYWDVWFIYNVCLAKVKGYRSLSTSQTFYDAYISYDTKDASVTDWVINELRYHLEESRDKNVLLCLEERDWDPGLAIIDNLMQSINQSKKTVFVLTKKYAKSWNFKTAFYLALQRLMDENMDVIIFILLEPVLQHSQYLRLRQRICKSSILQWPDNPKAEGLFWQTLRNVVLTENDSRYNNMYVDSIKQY
Method: (§1) HEK293 assay for human TLR2 and TLR8 selectivity: Human embryonic kidney (HEK) 293 cells expressing human TLR2 or TLR8 with an NF-κB-responsive secreted embryonic alkaline phosphatase (SEAP) reporter gene were obtained from Invivogen (San Diego, CA). Cells were maintained in RPMI or DMEM with 10% heat inactivated-FBS and selection antibiotics per the manufacturer's instructions. Cells were plated at 5×10^5 cells/96-well and stimulated with indicated agonist(s) for 24 hours. Supernatants were harvested and analyzed for NF-κB/SEAP activation using the QuantiBlue kit (Invivogen). Values are expressed as fold change in OD650 over vehicle-only treated samples.

THP1-NF-κB cells = test: THP1-NF-κB cell stimulation for 24 hours, secreted luciferase luminescence; type: cell-based, human; conditions: for THP1 cells (relative luminescence units, N = 4) Comp at 25 uM / THP1 cells (relative luminescence units, N = 4) Comp at 100 uM: NF-κB-dependent luminescence, 24 hours; for THP1 cells (relative luminescence units, N = 4) Comp at 25 uM: compound at 25 uM; for THP1 cells (relative luminescence units, N = 4) Comp at 100 uM: compound at 100 uM
Method: (§2) THP-1 Cell Line and Culture Conditions. The THP1-Lucia™ cell line was obtained from Invivogen (San Diego, CA). THP1-Lucia cells, which are human monocytic cells derived from the blood of a child with leukemia, contain an NF-kB-inducible Luc reporter construct. This allows NF-kB activation to be measured by quantifying the luminescence from the secreted luciferase enzyme. THP1-Lucia cells were cultured in RPMI 1640 supplemented with 10% non-heat inactivated fetal bovine serum (FBS), 10 mM HEPES, 1.0 mM sodium pyruvate, 50 ug/ml Pen-Strep, and 100 ug/mL Normocin™. Once cultured, the cells were stored in a 37° C. incubator with 5% CO2 and a humidified atmosphere. Cells were passaged every 2-3 days and not allowed to exceed a concentration of 2.0×10^6 cells/ml media.
PBMCs were isolated from blood using a Ficoll density gradient. PBMCs either used fresh or were stored at 5×10^7 cells per vial in 1 mL RPMI containing 20% autologous plasma and 10% DMSO at −80° C. until use. Stimulation plates were prepared by transferring 0.66 μl of DMSO-dissolved compounds (30 or 7.5 mM) to each well of a round bottom 96-well plate. PBMCs isolated from human adult donors or THP1-NF-κB cells were resuspended at a concentration of 10^5 cells/200 μl of RPMI supplemented with 10% of platelet-poor plasma or THP1 culture medium, respectively. 200 μl of the cell suspension were transferred to each well resulting in a final compound concentration of 100 or 25 μM. After 24 hours of incubation (37° C., 5% CO2), plates were spun down (500×g, room temperature, 5 minutes) and supernatants were harvested for further analysis.

human TLR2 [1] = biological target: T2, human TLR2 (Homo sapiens, UniProt O60603); test: HEK293 assay for human TLR2 selectivity (NF-κB/SEAP); type: cell-based; conditions: 18-24 hours stimulation, titratable
T2 construct: expressed in transfected cells; host or cells: HEK-Blue (human embryonic kidney) cells with an NF-kB-inducible SEAP reporter
T2 sequence (O60603 21-784): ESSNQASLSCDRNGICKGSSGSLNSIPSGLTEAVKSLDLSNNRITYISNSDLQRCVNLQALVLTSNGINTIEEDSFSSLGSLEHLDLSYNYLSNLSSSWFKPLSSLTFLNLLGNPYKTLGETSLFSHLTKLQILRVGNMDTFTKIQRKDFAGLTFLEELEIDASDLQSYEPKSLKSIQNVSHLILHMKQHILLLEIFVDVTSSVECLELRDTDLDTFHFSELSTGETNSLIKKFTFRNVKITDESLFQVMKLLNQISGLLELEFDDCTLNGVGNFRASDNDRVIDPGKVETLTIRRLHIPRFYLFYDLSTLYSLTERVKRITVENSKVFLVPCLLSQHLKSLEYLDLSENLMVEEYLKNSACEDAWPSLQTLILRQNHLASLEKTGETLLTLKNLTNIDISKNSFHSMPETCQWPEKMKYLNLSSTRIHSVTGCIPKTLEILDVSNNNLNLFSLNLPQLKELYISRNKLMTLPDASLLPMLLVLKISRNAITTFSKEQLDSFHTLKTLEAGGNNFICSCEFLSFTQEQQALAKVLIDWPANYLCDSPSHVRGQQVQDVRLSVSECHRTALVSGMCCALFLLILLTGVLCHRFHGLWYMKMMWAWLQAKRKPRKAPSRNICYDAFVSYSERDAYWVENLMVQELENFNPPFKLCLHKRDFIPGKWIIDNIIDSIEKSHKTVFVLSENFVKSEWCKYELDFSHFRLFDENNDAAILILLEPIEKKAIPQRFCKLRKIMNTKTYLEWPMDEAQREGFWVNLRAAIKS
Method: as §1

[2] = tested on: NF-κB reporter THP1 cells; test: NF-kB-induced luminescence HTS in THP1-Lucia cells (384-well); type: cell-based, human; conditions: ranked at 3.3 μM; ~200,000 compounds tested
From the text: HTS Overview: To identify immunomodulators/adjuvants that robustly activate human immune cells, ˜200,000 small molecules were screening in a THP1 cell-based assay. The chemical libraries screened included known bioactive and commercial libraries from various sources including commercial libraries such as ChemDiv, ChemBridge, and Asinex. All libraries were owned and provided by the Institute of Chemistry and Cell Biology (ICCB)—Longwood (Harvard Medical School). The project primary screen incorporated two distinct arms: a) a luciferase-based screen which corresponds to the relative activation of the NF-κB reporter; and b) a fluorescence-based screen, corresponding to the phenotypic adherence, a distinct marker of cell activation, of the human monocytic THP-1 cell lines. Described herein are small molecules identified in the screen that induce NF-kB activity based on a luciferase-based THP-1 cell screen.
as §2
NF-kB-induced Luminescence Assay. THP1-Lucia cells between passage 15 and 18 and suspended in culture medium were dispensed into 384-well black clear-bottom plates (Corning 3712) at 30,000 cells/30 μl/well using a Combi liquid dispenser. To allow comparison to a benchmark small molecule with known immune stimulating activity, cells at the same concentration were stimulated with 50 μM R848, a TLR7/8 agonist, in 0.3% DMSO and added to every other well of column 24, which was left empty of cells, by multichannel pipette at the same volume. Five μl of 700 nM Phorbol myristate acetate (PMA) in THP1 culture media and 2.3% DMSO, a known peripheral blood cell mitogen, was added to every other well of column 23 by multichannel pipette (final concentration in well: 100 nM in 0.3% DMSO). Five μl of THP1 culture media with 2.3% DMSO was added to the remaining wells of column 23 by multichannel pipette (final concentration 0.3% DMSO). One hundred nl aliquots of library compounds diluted in 100% DMSO were transferred from their original 384-well plates to the assay plates using a Seiko pin transfer machine. Each library plate was pinned in duplicate, yielding two assay plates with identical conditions for comparison. Plates were then incubated for 24 hours at 37 C with 5% CO2 in humid conditions. Following incubation, 10 μL of supernatant was removed from each well and transferred to a white plate (Corning 3570) using a Vprep liquid transfer machine. 10 μL of recombinant Lucia protein (Invivogen) diluted 1:2000 in THP1 culture media was added to empty well 24P. Using a Combi liquid dispenser, 50 μL/well of Quanti-Luc substrate (Invivogen) diluted 1:3 in sterile water was added to the assay plate. Immediately after adding the substrate, the luminescence was read using a PerkinElmer Envision plate reader.

human TLR2 [3] = biological target: T2, human TLR2; test: HEK-Blue human TLR cell screening (NF-κB SEAP reporter); type: cell-based; conditions: compounds at 10 μM, fold change over negative controls
Method: HEK cell screening. Human embryonic kidney (HEK)-Blue cell lines expressing human TLRs (hTLRs) and a secreted embryonic alkaline phosphatase (SEAP) reporter under the control of an NF-κB-inducible promoter were cultured in 96-well plates (50,000-75,000 cells/200 μl/well) and stimulated with the indicated compounds at 10 µM or positive controls. The media added to the wells is designed for detection of NF-κB-induced SEAP expression. After 16-24 hours of incubation optical density (OD) was read at 650 nm on a Molecular Devices SpectraMax 340PC absorbance detector. Positive controls employed in this assay were: heat-killed Listeria monocytogenes (1×10^8 cells/ml) for hTLR2, Poly (I:C) HMW (1 μg/ml) for hTLR3, ? E. coli K12 LPS (100 ng/ml) for hTLR4, S. typhimurium flagellin (100 ng/ml) for hTLR5, CL307 (1 μg/ml) for hTLR7, CL075 (1 μg/ml) for hTLR8 and CpG ODN 2006 (1 μg/ml) for hTLR9.

CNC(=O)c1c(NC(=O)c2ccc(S(=O)(=O)N(C)C)cc2)sc2c1CCCC2 [Compound 80.3]
Adult PBMCs (median ng/ml) IL-6 (N = 7) (human adult PBMCs; 24 hours): 0.008 ng/mL | Adult PBMCs (median ng/ml) TNFa (N = 13) (human adult PBMCs; 24 hours): 0.008 ng/mL | TLR8 induction in HEK TLR8 cells (SEAP) (human TLR8): without induction of TLR8 | THP1 cells (relative luminescence units, N = 4) Comp at 25 uM (THP1-NF-κB cells): 2835 relative luminescence units | THP1 cells (relative luminescence units, N = 4) Comp at 100 uM (THP1-NF-κB cells): 3630 relative luminescence units | TLR2 activation in HEK TLR2 cells (SEAP) (human TLR2 [1]): induced TLR2 specific activation

CNC(=O)c1c(NC(=O)c2ccc(S(=O)(=O)N(C)C)cc2)sc(C)c1C [Compound 80.15]
Adult PBMCs (median ng/ml) IL-6 (N = 7) (human adult PBMCs; 24 hours): 0.008 ng/mL | Adult PBMCs (median ng/ml) TNFa (N = 13) (human adult PBMCs; 24 hours): 0.0225 ng/mL | TLR8 induction in HEK TLR8 cells (SEAP) (human TLR8): without induction of TLR8 | THP1 cells (relative luminescence units, N = 4) Comp at 25 uM (THP1-NF-κB cells): 6369 relative luminescence units | THP1 cells (relative luminescence units, N = 4) Comp at 100 uM (THP1-NF-κB cells): 9715 relative luminescence units | TLR2 activation in HEK TLR2 cells (SEAP) (human TLR2 [1]): induced TLR2 specific activation

CCOC(=O)c1c(NC(=S)Nc2ccccc2OC)sc2c1CC(C)(C)OC2 [Compound 070]
Efficacy in activating NF-κB in THP1 cells (screening hits) [2]: most effective | Activation of human TLR2 (NF-κB activation in TLR-expressing HEK-Blue cells) (human TLR2 [3]): activate human TLR2

COC(=O)c1c(NC(=O)CN2CCC3(CC2)OCCO3)sc2c1CCCC2 [Compound 004]
Activation of human adult PBMCs (cytokine levels by multiplex assay) (human adult PBMCs; 384-well plates, 24 hours, 0.05-33 μM): activates human adult PBMCs in a concentration-dependent manner | Activation of human adult PBMCs (human adult PBMCs; 384 and 96 well assay): induced activation | Efficacy in activating NF-κB in THP1 cells (screening hits) [2]: most effective NF-κB activators; also recorded: most effective NF-kB activators | Activation of THP1 cells (THP1-NF-κB cells; 384 and 96 well assay): induced activation of THP1 cells | Activation of human TLR2 (NF-κB activation in TLR-expressing HEK-Blue cells) (human TLR2 [3]): activate human TLR2; also recorded: activated the human TLR2-expressing human embryonic kidney (HEK)-Blue cell line

CNC(=O)c1c(NC(=O)c2ccc(S(=O)(=O)N3CCCC3)cc2)sc2c1CCC2 [Compound 80.10]
Adult PBMCs (median ng/ml) IL-6 (N = 7) (human adult PBMCs; 24 hours): 0.012 ng/mL | Adult PBMCs (median ng/ml) TNFa (N = 13) (human adult PBMCs; 24 hours): 0.008 ng/mL | TLR8 induction in HEK TLR8 cells (SEAP) (human TLR8): without induction of TLR8 | THP1 cells (relative luminescence units, N = 4) Comp at 25 uM (THP1-NF-κB cells): 3576 relative luminescence units | THP1 cells (relative luminescence units, N = 4) Comp at 100 uM (THP1-NF-κB cells): 4814 relative luminescence units | TLR2 activation in HEK TLR2 cells (SEAP) (human TLR2 [1]): induced TLR2 specific activation

From US12268739B2, “Use of toll-like receptor 2 (TLR-2) agonist for modulating human immune response” (Children's Medical Center Corporation, priority 2018, dated 2025)
